Patent US6355799B1, “Substituted benzene compounds, process for their preparation, and herbicidal and defoliant compositions containing them” (ISK Americas Incorporated, priority 1997, dated 2002)

Experiments:
Assay type in all cases: in vivo
[1] = tested on: field corn (Zea mays L., var. Dekalb 535, CORN); test: Post-emerge test, crop safety; conditions: post-emerge, 14 days after application, rating scale 0-100
In short: (§1)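 Visual ratings on a 0-100 scale (0 no damage, 100 all plants dead) were taken at 14 days after treatment. Rates of 15-1000 g ai/ha in acetone, 187 l/ha, were sprayed onto soil one day after planting (pre-emerge) or onto 2-3 leaf plants with 0.25% v/v surfactant (post-emerge).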

[2] = tested on: upland rice (Oryza sp., var. Tebonnet, RICE); test: Post-emerge test, crop safety; conditions: post-emerge, 14 days after application, rating scale 0-100
In short: as §1

[3] = tested on: green foxtail (Setaria viridis, SETVI); test: Post-emerge test, greenhouse herbicide activity screening; conditions: post-emerge, 14 days after application, rating scale 0-100
In short: (§2)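 Each test used a mechanized track sprayer delivering 187 l/ha of acetone solution at 15–1000 g ai/ha. Post-emerge foliage at 2–3 leaves was treated with added 0.25% v/v non-ionic surfactant and bottom-watered only. Injury was assessed on day 14, where 100 means total kill.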

[4] = tested on: johnsongrass (Sorghum halepense, SORHA); test: as above; conditions: post-emerge, 14 days after application, rating scale 0-100
In short: as §2

[5] = tested on: lambsquarters (Chenopodium album, CHEAL); test: as above; conditions: post-emerge, 14 days after application, rating scale 0-100
In short: as §2

[6] = tested on: ivyleaf morningglory (Ipomoea hederacea, IPOHE); test: as above; conditions: post-emerge, 14 days after application, rating scale 0-100
In short: as §2

[7] = tested on: velvetleaf (Abutilon theophrasti, ABUTH); test: as above; conditions: post-emerge, 14 days after application, rating scale 0-100
In short: as §2

[8] = tested on: barnyardgrass (Echinochloa crus-galli, ECHCG); test: as above; conditions: post-emerge, 14 days after application, rating scale 0-100
In short: as §2

[9] = tested on: redroot pigweed (Amaranthus retroflexus, AMARE); test: as above; conditions: post-emerge, 14 days after application, rating scale 0-100
In short: as §2

[10] = tested on: large crabgrass (Digitaria sanguinalis, DIGSA); test: as above; conditions: post-emerge, 14 days after application, rating scale 0-100
In short: as §2

[11] = tested on: common ragweed (Ambrosia artemisizfolia L., AMBEL); test: as above; conditions: post-emerge, 14 days after application, rating scale 0-100
In short: as §2

[12] = tested on: sicklepod (Cassia obtusifolia, CASOB); test: as above; conditions: post-emerge, 14 days after application, rating scale 0-100
In short: as §2

[13] = tested on: green foxtail (Setaria viridis, SETVI); test: Pre-emerge test, greenhouse herbicide activity screening; conditions: rated 14 days after application, 0 = no damage, 100 = complete death
In short: as §1

[14] = tested on: johnsongrass (Sorghum halepense, SORHA); test: as above; conditions: rated 14 days after application, 0 = no damage, 100 = complete death
In short: as §1

[15] = tested on: lambsquarters (Chenopodium album, CHEAL); test: as above; conditions: rated 14 days after application, 0 = no damage, 100 = complete death
In short: as §1

[16] = tested on: ivyleaf morningglory (Ipomoea hederacea, IPOHE); test: as above; conditions: rated 14 days after application, 0 = no damage, 100 = complete death
In short: as §1

[17] = tested on: velvetleaf (Abutilon theophrasti, ABUTH); test: as above; conditions: rated 14 days after application, 0 = no damage, 100 = complete death
In short: as §1

[18] = tested on: barnyardgrass (Echinochloa crus-galli, ECHCG); test: as above; conditions: rated 14 days after application, 0 = no damage, 100 = complete death
In short: as §1

[19] = tested on: large crabgrass (Digitaria sanguinalis, DIGSA); test: as above; conditions: rated 14 days after application, 0 = no damage, 100 = complete death
In short: as §1

[20] = tested on: common ragweed (Ambrosia artemisizfolia L., AMBEL); test: as above; conditions: rated 14 days after application, 0 = no damage, 100 = complete death
In short: as §1

[21] = tested on: sicklepod (Cassia obtusifolia, CASOB); test: as above; conditions: rated 14 days after application, 0 = no damage, 100 = complete death
In short: as §1

[22] = tested on: redroot pigweed (Amaranthus retroflexus, AMARE); test: as above; conditions: rated 14 days after application, 0 = no damage, 100 = complete death
In short: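 Herbicidal damage is scored 0 (none) to 100 (complete plant death) two weeks after a simulated field spray. Rates span 15–1000 g ai/ha, delivered in acetone at 187 l/ha. For post-emergence treatments, plants have 2–3 leaves and the spray carries 0.25% v/v non-ionic surfactant.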

[23] = tested on: field corn (Zea mays L., var. Dekalb 535, CORN); test: Pre-emerge test, crop safety; conditions: rated 14 days after application, 0 = no damage, 100 = complete death
In short: (§3)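 Applied at 15–1000 g ai/ha from acetone in 187 l/ha spray volume. Post-emergence applications included 0.25% v/v non-ionic surfactant and reached plants sown 8–21 days before. Pre-emergence applications were incorporated by surface watering. Efficacy or crop damage was rated on a 0–100 scale after 14 days.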

[24] = tested on: upland rice (Oryza sp., var. Tebonnet, RICE); test: Pre-emerge test, crop safety; conditions: rated 14 days after application, 0 = no damage, 100 = complete death
In short: as §3

COc1c(Cl)cc(F)c(-n2c(=O)cc(C(F)(F)F)n(C)c2=O)c1NC(=O)c1ccc(CCl)cc1 [2-36]
phytotoxicity rating CORN ([1]; 63 g ai/ha): 10
phytotoxicity rating CORN ([1]; 250 g ai/ha): 20
phytotoxicity rating RICE ([2]; 63 g ai/ha): 25
phytotoxicity rating RICE ([2]; 250 g ai/ha): 40
phytotoxicity rating SETVI ([3]; 63 g ai/ha): 50
phytotoxicity rating SETVI ([3]; 250 g ai/ha): 60
phytotoxicity rating SORHA ([4]; 63 g ai/ha): 10
phytotoxicity rating SORHA ([4]; 250 g ai/ha): 10
phytotoxicity rating CHEAL ([5]; 63 g ai/ha): 95
phytotoxicity rating CHEAL ([5]; 250 g ai/ha): 100
phytotoxicity rating IPOHE ([6]; 63 g ai/ha): 100
phytotoxicity rating IPOHE ([6]; 250 g ai/ha): 100
phytotoxicity rating ABUTH ([7]; 63 g ai/ha): 100
phytotoxicity rating ABUTH ([7]; 250 g ai/ha): 100
phytotoxicity rating ECHCG ([8]; 63 g ai/ha): 10
phytotoxicity rating ECHCG ([8]; 250 g ai/ha): 0
phytotoxicity rating AMARE ([9]; 63 g ai/ha): 100
phytotoxicity rating AMARE ([9]; 250 g ai/ha): 100
phytotoxicity rating DIGSA ([10]; 63 g ai/ha): 20
phytotoxicity rating DIGSA ([10]; 250 g ai/ha): 20
phytotoxicity rating AMBEL ([11]; 63 g ai/ha): 80
phytotoxicity rating AMBEL ([11]; 250 g ai/ha): 95
phytotoxicity rating CASOB ([12]; 63 g ai/ha): 60
phytotoxicity rating CASOB ([12]; 250 g ai/ha): 60
Pre-emerge Herbicidal Activity, phytotoxicity rating (0-100), SETVI ([13]; 63 g ai/ha): 25
Pre-emerge Herbicidal Activity, phytotoxicity rating (0-100), SETVI ([13]; 250 g ai/ha): 90
Pre-emerge Herbicidal Activity, phytotoxicity rating (0-100), SORHA ([14]; 63 g ai/ha): 0
Pre-emerge Herbicidal Activity, phytotoxicity rating (0-100), SORHA ([14]; 250 g ai/ha): 20
Pre-emerge Herbicidal Activity, phytotoxicity rating (0-100), CHEAL ([15]; 63 g ai/ha): 90
Pre-emerge Herbicidal Activity, phytotoxicity rating (0-100), CHEAL ([15]; 250 g ai/ha): 100
Pre-emerge Herbicidal Activity, phytotoxicity rating (0-100), IPOHE ([16]; 63 g ai/ha): 0
Pre-emerge Herbicidal Activity, phytotoxicity rating (0-100), IPOHE ([16]; 250 g ai/ha): 60
Pre-emerge Herbicidal Activity, phytotoxicity rating (0-100), ABUTH ([17]; 63 g ai/ha): 100
Pre-emerge Herbicidal Activity, phytotoxicity rating (0-100), ABUTH ([17]; 250 g ai/ha): 100
Pre-emerge Herbicidal Activity, phytotoxicity rating (0-100), ECHCG ([18]; 63 g ai/ha): 0
Pre-emerge Herbicidal Activity, phytotoxicity rating (0-100), ECHCG ([18]; 250 g ai/ha): 10
Pre-emerge Herbicidal Activity, phytotoxicity rating (0-100), DIGSA ([19]; 63 g ai/ha): 0
Pre-emerge Herbicidal Activity, phytotoxicity rating (0-100), DIGSA ([19]; 250 g ai/ha): 30
Pre-emerge Herbicidal Activity, phytotoxicity rating (0-100), AMBEL ([20]; 63 g ai/ha): 0
Pre-emerge Herbicidal Activity, phytotoxicity rating (0-100), AMBEL ([20]; 250 g ai/ha): 30
Pre-emerge Herbicidal Activity, phytotoxicity rating (0-100), CASOB ([21]; 63 g ai/ha): 10
Pre-emerge Herbicidal Activity, phytotoxicity rating (0-100), CASOB ([21]; 250 g ai/ha): 70
Pre-emerge Herbicidal Activity, phytotoxicity rating (0-100), AMARE ([22]; 63 g ai/ha): 100
Pre-emerge Herbicidal Activity, phytotoxicity rating (0-100), AMARE ([22]; 250 g ai/ha): 100
Pre-emerge phytotoxicity rating (0-100), crop damage, CORN ([23]; 63 g ai/ha): 0
Pre-emerge phytotoxicity rating (0-100), crop damage, CORN ([23]; 250 g ai/ha): 0
Pre-emerge phytotoxicity rating (0-100), crop damage, RICE ([24]; 63 g ai/ha): 0
Pre-emerge phytotoxicity rating (0-100), crop damage, RICE ([24]; 250 g ai/ha): 40

COc1c(Cl)cc(F)c(-n2c(=O)cc(C(F)(F)F)n(C)c2=O)c1NC(=O)c1ccccc1F [2-39]
phytotoxicity rating CORN ([1]; 63 g ai/ha): 20
phytotoxicity rating CORN ([1]; 250 g ai/ha): 70
phytotoxicity rating RICE ([2]; 63 g ai/ha): 30
phytotoxicity rating RICE ([2]; 250 g ai/ha): 70
phytotoxicity rating SETVI ([3]; 63 g ai/ha): 20
phytotoxicity rating SETVI ([3]; 250 g ai/ha): 80
phytotoxicity rating SORHA ([4]; 63 g ai/ha): 10
phytotoxicity rating SORHA ([4]; 250 g ai/ha): 60
phytotoxicity rating CHEAL ([5]; 63 g ai/ha): 90
phytotoxicity rating CHEAL ([5]; 250 g ai/ha): 95
phytotoxicity rating IPOHE ([6]; 63 g ai/ha): 99
phytotoxicity rating IPOHE ([6]; 250 g ai/ha): 100
phytotoxicity rating ABUTH ([7]; 63 g ai/ha): 100
phytotoxicity rating ABUTH ([7]; 250 g ai/ha): 100
phytotoxicity rating ECHCG ([8]; 63 g ai/ha): 0
phytotoxicity rating ECHCG ([8]; 250 g ai/ha): 60
phytotoxicity rating AMARE ([9]; 63 g ai/ha): 70
phytotoxicity rating AMARE ([9]; 250 g ai/ha): 95
phytotoxicity rating DIGSA ([10]; 63 g ai/ha): 0
phytotoxicity rating DIGSA ([10]; 250 g ai/ha): 50
phytotoxicity rating AMBEL ([11]; 63 g ai/ha): 50
phytotoxicity rating AMBEL ([11]; 250 g ai/ha): 95
phytotoxicity rating CASOB ([12]; 63 g ai/ha): 60
phytotoxicity rating CASOB ([12]; 250 g ai/ha): 90
Pre-emerge Herbicidal Activity, phytotoxicity rating (0-100), SETVI ([13]; 63 g ai/ha): 100
Pre-emerge Herbicidal Activity, phytotoxicity rating (0-100), SETVI ([13]; 250 g ai/ha): 100
Pre-emerge Herbicidal Activity, phytotoxicity rating (0-100), SORHA ([14]; 63 g ai/ha): 60
Pre-emerge Herbicidal Activity, phytotoxicity rating (0-100), SORHA ([14]; 250 g ai/ha): 100
Pre-emerge Herbicidal Activity, phytotoxicity rating (0-100), CHEAL ([15]; 63 g ai/ha): 100
Pre-emerge Herbicidal Activity, phytotoxicity rating (0-100), CHEAL ([15]; 250 g ai/ha): 100
Pre-emerge Herbicidal Activity, phytotoxicity rating (0-100), IPOHE ([16]; 63 g ai/ha): 95
Pre-emerge Herbicidal Activity, phytotoxicity rating (0-100), IPOHE ([16]; 250 g ai/ha): 100
Pre-emerge Herbicidal Activity, phytotoxicity rating (0-100), ABUTH ([17]; 63 g ai/ha): 100
Pre-emerge Herbicidal Activity, phytotoxicity rating (0-100), ABUTH ([17]; 250 g ai/ha): 100
Pre-emerge Herbicidal Activity, phytotoxicity rating (0-100), ECHCG ([18]; 63 g ai/ha): 90
Pre-emerge Herbicidal Activity, phytotoxicity rating (0-100), ECHCG ([18]; 250 g ai/ha): 100
Pre-emerge Herbicidal Activity, phytotoxicity rating (0-100), DIGSA ([19]; 63 g ai/ha): 99
Pre-emerge Herbicidal Activity, phytotoxicity rating (0-100), DIGSA ([19]; 250 g ai/ha): 100
Pre-emerge Herbicidal Activity, phytotoxicity rating (0-100), AMBEL ([20]; 63 g ai/ha): 100
Pre-emerge Herbicidal Activity, phytotoxicity rating (0-100), AMBEL ([20]; 250 g ai/ha): 100
Pre-emerge Herbicidal Activity, phytotoxicity rating (0-100), CASOB ([21]; 63 g ai/ha): 100
Pre-emerge Herbicidal Activity, phytotoxicity rating (0-100), CASOB ([21]; 250 g ai/ha): 100
Pre-emerge Herbicidal Activity, phytotoxicity rating (0-100), AMARE ([22]; 63 g ai/ha): 100
Pre-emerge Herbicidal Activity, phytotoxicity rating (0-100), AMARE ([22]; 250 g ai/ha): 100
Pre-emerge phytotoxicity rating (0-100), crop damage, CORN ([23]; 63 g ai/ha): 70
Pre-emerge phytotoxicity rating (0-100), crop damage, CORN ([23]; 250 g ai/ha): 95
Pre-emerge phytotoxicity rating (0-100), crop damage, RICE ([24]; 63 g ai/ha): 90
Pre-emerge phytotoxicity rating (0-100), crop damage, RICE ([24]; 250 g ai/ha): 99
